Measured values from patent US11191811B2, “Osteocalcin as a treatment for frailty associated with aging” (THE TRUSTEES OF COLUMBIA UNIVERSITY IN THE CITY OF NEW YORK, priority 2014, dated 2021).
Where two headings read alike, the source gives them in different places.

Tests used:
gamma-carboxylase = biological target: T1, gamma-carboxylase (Homo sapiens, UniProt P38435); details: thiol-specific inhibitors; cited from earlier work
T1 sequence (P38435 1-758): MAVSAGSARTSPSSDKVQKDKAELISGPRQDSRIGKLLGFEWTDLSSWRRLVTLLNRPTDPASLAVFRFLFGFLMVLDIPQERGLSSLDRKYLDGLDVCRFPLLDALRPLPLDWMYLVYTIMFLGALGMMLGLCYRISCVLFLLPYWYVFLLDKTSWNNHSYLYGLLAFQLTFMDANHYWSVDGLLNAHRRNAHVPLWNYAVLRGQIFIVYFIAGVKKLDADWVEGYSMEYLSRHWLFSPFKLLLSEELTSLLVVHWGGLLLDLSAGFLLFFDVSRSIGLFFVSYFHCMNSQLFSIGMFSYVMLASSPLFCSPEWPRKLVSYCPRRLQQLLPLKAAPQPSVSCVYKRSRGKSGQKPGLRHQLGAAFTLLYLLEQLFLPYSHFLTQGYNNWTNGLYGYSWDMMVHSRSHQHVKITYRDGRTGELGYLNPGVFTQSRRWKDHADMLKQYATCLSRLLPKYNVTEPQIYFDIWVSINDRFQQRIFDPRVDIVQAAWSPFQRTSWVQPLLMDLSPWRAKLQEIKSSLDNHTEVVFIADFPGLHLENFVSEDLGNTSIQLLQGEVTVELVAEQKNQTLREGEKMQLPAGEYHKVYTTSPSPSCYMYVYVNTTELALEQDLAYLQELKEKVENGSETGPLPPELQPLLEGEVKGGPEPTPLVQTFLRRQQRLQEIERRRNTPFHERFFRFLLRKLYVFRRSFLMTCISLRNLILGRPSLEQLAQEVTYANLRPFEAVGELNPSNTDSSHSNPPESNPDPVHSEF

osteoblasts = assay: Gene expression in osteoblasts treated with IL-6; type: cell-based
Text: It was observed that treating osteoblasts with IL-6 decreased expression of Osteocalcin, thereby explaining why the circulating levels of total (carboxylated and uncarboxylated forms) osteocalcin are […] in Il6−/− mice. More importantly, IL-6 increased the expression in osteoblasts of Rankl, a cytokine that favors osteoclast differentiation and decreased the expression of Osteoprotegerin (Opg), a decoy receptor for Rankl and an inhibitor of bone resorption (Karsenty and Wagner, 2002, Developmental Cell 2:389-406; Palmqvist et al., 2002, J. Immunol. 169:3353-3362). This observation is consistent with the fact that the circulating levels of the undercarboxylated and active form of osteocalcin are decreased in Il6−/− mice (FIG. 29E). The regulation of Il-6 expression by osteocalcin signaling in myofibers and of bone resorption by IL-6 also explains why circulating levels of CTX, a biomarker of bone resorption, were low after exercise in Il6−/− and Gprc6aMck−/− mice (FIG. 29G-H). These experiments reveal the existence of a feed-forward regulation between osteocalcin production in bone and IL-6 synthesis in muscle that is necessary for the increase in muscle function during exercise. This regulatory loop should synergize with the ability of IL-6 to favor liver gluconeogenesis and lipolysis, since these two other functions of IL-6 increase the pool of nutrients made available for myofibers during exercise.
Serum osteocalcin, PINP, CTX, and insulin levels were measured using ELISA assays. Blood glucose level was measured using an Accu-Check glucometer. Urine 3-MHT was measured as previously described (Aranibar et al., 2011, Anal. Biochem. 410:84-91). Determination of cAMP accumulation was performed using a commercial kit (R&D). For gene expression, 1 μg of total RNA was reverse transcribed into cDNA. qPCR analyses were performed using a SYBER green master mix (Applied Biosciences) and a CFX-Connect real time PCR (Bio-Rad). Relative expression levels of each gene were normalized to that of Hprt or Gapdh. For in situ hybridization, muscle was frozen in liquid N2-cooled methylbutane. Samples were sectioned at 10 μm using a cryostat. In situ hybridization was performed with a DIG-labeled riboprobe as previously described (Oury et al., 2011, Cell 144:796-809).

Compound	gamma-carboxylase enzyme activity (gamma-carboxylase)	expression of Osteocalcin in osteoblasts (osteoblasts)	expression of Osteoprotegerin (Opg) in osteoblasts (osteoblasts)	expression of Rankl in osteoblasts (osteoblasts)	expression of Osteocalcin in osteoblasts (osteoblasts; listed as interleukin-6)	expression of Rankl in osteoblasts (osteoblasts; listed as interleukin-6)
CCN1C(=O)C=CC1=O [N-ethylmaleimide]	inhibited	–	–	–	–	–
O=C([O-])c1cc[c]([Hg][OH])cc1 [pHMB, p-hydroxymurcuribenzoate]	inhibited	–	–	–	–	–
IL-6: interleukin-6 (IL-6), a myokine whose circulating levels raise during exercise	–	decreased	decreased	increased	inhibits	stimulating
